Source: patent publication US10202339B2, “Therapeutic compounds and compositions” (AGIOS PHARMACEUTICALS, INC., priority 2012, dated 2019)

target: IDH2 R140Q (Homo sapiens (Human), UniProt P48735, R140Q); test: IDH2 R140Q enzymatic cofactor depletion assay (diaphorase/resazurin); format: biochemical; conditions: IDH2 R140Q enzyme, one hour preincubation with compound, one hour reaction; read-out: Enz R140Q
Method: The reaction was terminated by the addition of a second enzyme, diaphorase, and a corresponding substrate, resazurin. Diaphorase reduces resazurin to the highly fluorescent resorufin with the concomitant oxidation of NADPH to NADP, both halting the IDH2 reaction by depleting the available cofactor pool and facilitating quantitation of the amount of cofactor remaining after a specific time period through quantitative production of an easily detected fluorophore.
The compound was then incubated for one hour at room temperature with the enzyme; before starting the IDH2 reaction with the addition of 10 μl of substrate mix containing 50 μM NADPH and 6.3 mM α-KG in the buffer described above. After a further one hour of incubation at room temperature, the reaction was halted and the remaining NADPH measured through conversion of resazurin to resorufin by the addition of 25 μl Stop Mix (36 μg/ml diaphorase enzyme and 60 μM resazurin; in buffer). After one minute of incubation the plate was read on a plate reader at Ex544/Em590.

IDH2 R140Q, sequence (P48735 40-452 R140Q): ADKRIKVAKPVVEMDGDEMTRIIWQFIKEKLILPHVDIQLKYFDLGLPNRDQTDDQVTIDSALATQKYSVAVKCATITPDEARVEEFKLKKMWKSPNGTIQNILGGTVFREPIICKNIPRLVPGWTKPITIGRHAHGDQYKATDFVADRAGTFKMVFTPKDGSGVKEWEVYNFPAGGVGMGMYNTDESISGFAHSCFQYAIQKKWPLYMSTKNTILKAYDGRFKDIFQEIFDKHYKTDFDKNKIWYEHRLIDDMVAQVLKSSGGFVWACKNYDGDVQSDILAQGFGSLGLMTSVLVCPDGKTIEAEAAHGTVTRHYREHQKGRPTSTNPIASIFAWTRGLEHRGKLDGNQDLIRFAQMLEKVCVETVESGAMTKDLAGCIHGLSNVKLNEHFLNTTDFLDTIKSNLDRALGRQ

Structure (SMILES) | IC50 [nM]
O=C(Nc1cccc(C(F)(F)F)c1)Nc1cc(S(=O)(=O)NCC(F)(F)F)ccc1-c1ccccc1 [Compound 44, N-(2,2,2-trifluoroethyl)-2-(3-(3-(trifluoromethyl)phenyl)ureido)-[1,1′-biphenyl]-4-sulfonamide] | 100 to 1000
N#CC1(NS(=O)(=O)c2ccc(-c3ccccc3)c(NC(=O)Nc3cccc(C(F)(F)F)c3)c2)CC1 [Compound 46, N-(1-cyanocyclopropyl)-2-(3-(3-(trifluoromethyl)phenyl)ureido)-[1,1′-biphenyl]-4-sulfonamide] | 100 to 1000
Cc1cccc(-c2ccc(S(=O)(=O)NC3CCOCC3)cc2NC(=O)Nc2cccc(C(F)(F)F)c2)c1 [Compound 47, 3′-methyl-N-(tetrahydro-2H-pyran-4-yl)-2-(3-(3-(trifluoromethyl)phenyl)ureido)-[1,1′-biphenyl]-4-sulfonamide] | 100 to 1000
O=C(Nc1cccc(C(F)(F)F)c1)Nc1cc(S(=O)(=O)Nc2ccccc2)ccc1-c1cccc(O)c1 [Compound 50, 3′-hydroxy-N-phenyl-2-(3-(3-(trifluoromethyl)phenyl)ureido)-[1,1′-biphenyl]-4-sulfonamide] | 100 to 1000
COc1cccc(-c2ccc(S(=O)(=O)Nc3ccccc3)cc2NC(=O)Nc2cccc(C(F)(F)F)c2)c1 [Compound 51] | 1000 to 10000
O=C(Nc1ccc(F)cc1)Nc1cc(S(=O)(=O)NC2CC2)ccc1-c1ccccc1 [Compound 53] | 1000 to 10000
O=C(Nc1cc(S(=O)(=O)NCC(F)(F)F)ccc1-c1ccccc1)NC1CCCC1 [Compound 54] | 1000 to 10000
O=C(Nc1ccc(F)c(Cl)c1)Nc1cc(S(=O)(=O)NCC(F)(F)F)ccc1-c1cccnc1 [Compound 55] | 1000 to 10000
CS(=O)(=O)c1cccc(-c2ccc(S(=O)(=O)Nc3ccccc3)cc2NC(=O)Nc2cccc(C(F)(F)F)c2)c1 [Compound 58] | 1000 to 10000
O=C(Nc1cccc(C(F)(F)F)c1)Nc1cc(S(=O)(=O)Nc2ccccc2)ccc1-c1ccncc1 [Compound 60] | 1000 to 10000
O=C(Nc1cccc(C(F)(F)F)c1)Nc1cc(S(=O)(=O)Nc2ccccc2)ccc1-c1ccccc1F [Compound 63] | 1000 to 10000
O=C(Nc1cccc(C(F)(F)F)c1)Nc1cc(S(=O)(=O)Nc2ccccc2)ccc1-c1cccc(F)c1 [Compound 64] | 1000 to 10000
O=C(Nc1cc(C(F)(F)F)ccn1)Nc1cc(S(=O)(=O)NCC(F)(F)F)ccc1-c1cccnc1 [Compound 65] | 1000 to 10000
CS(=O)(=O)c1cccc(NC(=O)Nc2cc(S(=O)(=O)NCC(F)(F)F)ccc2-c2ccccc2)c1 [Compound 67, 2-(3-(3-(methylsulfonyl)phenyl)ureido)-N-(2,2,2-trifluoroethyl)-[1,1′-biphenyl]-4-sulfonamide] | 100 to 1000
O=C(Nc1ccc(F)cc1F)Nc1cc(S(=O)(=O)NCC(F)(F)F)ccc1-c1ccccc1 [Compound 68, 2-(3-(2,4-difluorophenyl)ureido)-N-(2,2,2-trifluoroethyl)-[1,1′-biphenyl]-4-sulfonamide] | 100 to 1000
O=C(Nc1ccc(F)c(C(F)(F)F)c1)Nc1cc(S(=O)(=O)NCC(F)(F)F)ccc1-c1ccccc1 [Compound 69, 2-(3-(4-fluoro-3-(trifluoromethyl)phenyl)ureido)-N-(2,2,2-trifluoroethyl)-[1,1′-biphenyl]-4-sulfonamide] | 100 to 1000
CC1CCCC(NC(=O)Nc2cc(S(=O)(=O)NCC(F)(F)F)ccc2-c2ccccc2)C1 (stereo not drawn) [Compound 71, 2-(3-(3-methylcyclohexyl)ureido)-N-(2,2,2-trifluoroethyl)-[1,1′-biphenyl]-4-sulfonamide] | 100 to 1000
O=C(Nc1cc(S(=O)(=O)NCC(F)(F)F)ccc1-c1ccccc1)NC1CCCC(C(F)(F)F)C1 (stereo not drawn) [Compound 72, N-(2,2,2-trifluoroethyl)-2-(3-(3-(trifluoromethyl)cyclohexyl)ureido)-[1,1′-biphenyl]-4-sulfonamide] | 100 to 1000
CC1(C)CCCC(NC(=O)Nc2cc(S(=O)(=O)NCC(F)(F)F)ccc2-c2ccccc2)C1 (stereo not drawn) [Compound 73] | 1000 to 10000
O=C(Nc1cc(Cl)ccc1F)Nc1cc(S(=O)(=O)NCC(F)(F)F)ccc1-c1ccccc1 [Compound 74, 2-(3-(5-chloro-2-fluorophenyl)ureido)-N-(2,2,2-trifluoroethyl)-[1,1′-biphenyl]-4-sulfonamide] | 100 to 1000
O=C(Nc1cc(S(=O)(=O)NCC(F)(F)F)ccc1-c1ccccc1)Nc1ccc(F)cc1C(F)(F)F [Compound 76, 2-(3-(4-fluoro-2-(trifluoromethyl)phenyl)ureido)-N-(2,2,2-trifluoroethyl)-[1,1′-biphenyl]-4-sulfonamide] | 100 to 1000
O=C(Nc1cc(S(=O)(=O)NCC(F)(F)F)ccc1-c1ccccc1)Nc1ccncc1C(F)(F)F [Compound 78, N-(2,2,2-trifluoroethyl)-2-(3-(3-(trifluoromethyl)pyridin-4-yl)ureido)-[1,1′-biphenyl]-4-sulfonamide] | 100 to 1000
O=C(Nc1cccc(CO)c1)Nc1cc(S(=O)(=O)NCC(F)(F)F)ccc1-c1ccccc1 [Compound 80, 2-(3-(3-(hydroxymethyl)phenyl)ureido)-N-(2,2,2-trifluoroethyl)-[1,1′-biphenyl]-4-sulfonamide] | 100 to 1000
C[S+]([O-])c1cccc(NC(=O)Nc2cc(S(=O)(=O)NCC(F)(F)F)ccc2-c2ccccc2)c1 (stereo not drawn) [Compound 83, 2-(3-(3-(methylsulfinyl)phenyl)ureido)-N-(2,2,2-trifluoroethyl)-[1,1′-biphenyl]-4-sulfonamide] | 100 to 1000
O=C(Nc1cc(S(=O)(=O)NCC(F)(F)F)ccc1-c1ccccc1)Nc1cnccc1C(F)(F)F [Compound 84, N-(2,2,2-trifluoroethyl)-2-(3-(4-(trifluoromethyl)pyridin-3-yl)ureido)-[1,1′-biphenyl]-4-sulfonamide] | 100 to 1000
O=C(Nc1cnccc1Cl)Nc1cc(S(=O)(=O)NCC(F)(F)F)ccc1-c1ccccc1 [Compound 85, 2-(3-(4-chloropyridin-3-yl)ureido)-N-(2,2,2-trifluoroethyl)-[1,1′-biphenyl]-4-sulfonamide] | 100 to 1000
O=C(Nc1cccc(F)n1)Nc1cc(S(=O)(=O)NCC(F)(F)F)ccc1-c1ccccc1 [Compound 86, 2-(3-(6-fluoropyridin-2-yl)ureido)-N-(2,2,2-trifluoroethyl)-[1,1′-biphenyl]-4-sulfonamide] | 100 to 1000
O=C(Nc1cccc(Cl)c1)Nc1cc(S(=O)(=O)NCC(F)(F)F)ccc1-c1ccccc1 [Compound 88, 2-(3-(3-chlorophenyl)ureido)-N-(2,2,2-trifluoroethyl)-[1,1′-biphenyl]-4-sulfonamide] | 100 to 1000

Now from value to compound:

IC50 [nM] | Structure (SMILES)
< 100 | O=C(Nc1cccc(C(F)(F)F)c1)Nc1cc(S(=O)(=O)NC2COC2)ccc1-c1ccccc1 [Compound 45, N-(oxetan-3-yl)-2-(3-(3-(trifluoromethyl)phenyl)ureido)-[1,1′-biphenyl]-4-sulfonamide]
1000 to 10000 | Cc1cccc(-c2ccc(S(=O)(=O)NC3CC3)cc2NC(=O)Nc2cccc(C(F)(F)F)c2)c1 [Compound 48, N-cyclopropyl-3′-methyl-2-(3-(3-(trifluoromethyl)phenyl)ureido)-[1,1′-biphenyl]-4-sulfonamide]
1000 to 10000 | O=C(Nc1ccc(F)c(Cl)c1)Nc1cc(S(=O)(=O)NC2CC2)ccc1-c1ccccc1 [Compound 52]
1000 to 10000 | O=C(Nc1ccc(F)c(C(F)(F)F)c1)Nc1cc(S(=O)(=O)NCC(F)(F)F)ccc1-c1cccnc1 [Compound 56]
1000 to 10000 | O=C(Nc1cccc(C(F)(F)F)c1)Nc1cc(S(=O)(=O)Nc2ccccc2)ccc1-c1cccc(Cl)c1 [Compound 57]
1000 to 10000 | COc1ccc(-c2ccc(S(=O)(=O)Nc3ccccc3)cc2NC(=O)Nc2cccc(C(F)(F)F)c2)cc1 [Compound 59]
1000 to 10000 | O=C(Nc1cccc(C(F)(F)F)c1)Nc1cc(S(=O)(=O)Nc2ccccc2)ccc1-c1cccnc1 [Compound 61]
1000 to 10000 | Cc1ccc(-c2ccc(S(=O)(=O)Nc3ccccc3)cc2NC(=O)Nc2cccc(C(F)(F)F)c2)cc1 [Compound 62]
100 to 1000 | O=C(Nc1cc(S(=O)(=O)NCC(F)(F)F)ccc1-c1ccccc1)NC1CCCCC1 [Compound 66, 2-(3-cyclohexylureido)-N-(2,2,2-trifluoroethyl)-[1,1′-biphenyl]-4-sulfonamide]
100 to 1000 | O=C(Nc1nccs1)Nc1cc(S(=O)(=O)NCC(F)(F)F)ccc1-c1ccccc1 [Compound 70, 2-(3-(thiazol-2-yl)ureido)-N-(2,2,2-trifluoroethyl)-[1,1′-biphenyl]-4-sulfonamide]
100 to 1000 | O=C(Nc1cccc(Cl)n1)Nc1cc(S(=O)(=O)NCC(F)(F)F)ccc1-c1ccccc1 [Compound 79, 2-(3-(6-chloropyridin-2-yl)ureido)-N-(2,2,2-trifluoroethyl)-[1,1′-biphenyl]-4-sulfonamide]
100 to 1000 | O=C(Nc1cccc(O)c1)Nc1cc(S(=O)(=O)NCC(F)(F)F)ccc1-c1ccccc1 [Compound 81, 2-(3-(3-hydroxyphenyl)ureido)-N-(2,2,2-trifluoroethyl)-[1,1′-biphenyl]-4-sulfonamide]
100 to 1000 | O=C(Nc1cc(Cl)ccn1)Nc1cc(S(=O)(=O)NCC(F)(F)F)ccc1-c1ccccc1 [Compound 82, 2-(3-(4-chloropyridin-2-yl)ureido)-N-(2,2,2-trifluoroethyl)-[1,1′-biphenyl]-4-sulfonamide]
100 to 1000 | O=C(Nc1cc(C(F)(F)F)ccn1)Nc1cc(S(=O)(=O)NCC(F)(F)F)ccc1-c1ccccc1 [Compound 87, N-(2,2,2-trifluoroethyl)-2-(3-(4-(trifluoromethyl)pyridin-2-yl)ureido)-[1,1′-biphenyl]-4-sulfonamide]
